In PubChem BioAssay AID330 (DTP/NCI, 2004):
“And” between values parts separate entries of the source, which are not always exact repeats. Equal values may be shown once. Toxic doses and inconclusive results are not listed. How the source made its calls: active means survival T/C of 150% or more; inactive means T/C below 125% in these data.

Tested on: P388 leukemia ip, CD2F1 mice, survival T/C
Test: NCI In Vivo Anticancer Drug Screen. Data for tumor model P388 Leukemia (intraperitoneal) in CD2F1 (CDF1) mice
Conditions: endpoint: median survival time, higher = longer survival
Summary of the method: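 Mice carrying the transplanted tumor received test compound or vehicle. Survival was recorded in each group, and the value is the treated-group measurement divided by that of the vehicle-treated control group.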

[1] = dose: 50.0 mg/kg/injection, schedule: Q01DX009 (ip), vehicle: saline with Tween-80
[2] = dose: 100.0 mg/kg/injection, schedule: Q01DX009 (ip), vehicle: saline with Tween-80
[3] = dose: 60.0 mg/kg/injection, schedule: Q01DX005 (ip), vehicle: saline with Tween-80
[4] = dose: 120.0 mg/kg/injection, schedule: Q01DX005 (ip), vehicle: saline with Tween-80
[5] = dose: 240.0 mg/kg/injection, schedule: Q01DX005 (ip), vehicle: saline with Tween-80
[6] = dose: 25.0 mg/kg/injection, schedule: Q01DX009 (ip), vehicle: saline
[7] = dose: 50.0 mg/kg/injection, schedule: Q01DX009 (ip), vehicle: saline
[8] = dose: 100.0 mg/kg/injection, schedule: Q01DX009 (ip), vehicle: saline
[9] = dose: 200.0 mg/kg/injection, schedule: Q01DX009 (ip), vehicle: saline with Tween-80
[10] = dose: 240.0 mg/kg/injection, schedule: Q01DX005 (ip), vehicle: Klucel (hydroxypropylcellulose) (HPC)
[11] = dose: 50.0 mg/kg/injection, schedule: Q01DX005 (ip), vehicle: saline with Tween-80
[12] = dose: 100.0 mg/kg/injection, schedule: Q01DX005 (ip), vehicle: saline with Tween-80
[13] = dose: 200.0 mg/kg/injection, schedule: Q01DX005 (ip), vehicle: saline with Tween-80
[14] = dose: 50.0 mg/kg/injection, schedule: Q01DX009 (ip), vehicle: suspension in saline
[15] = dose: 100.0 mg/kg/injection, schedule: Q01DX009 (ip), vehicle: suspension in saline
[16] = dose: 200.0 mg/kg/injection, schedule: Q01DX009 (ip), vehicle: suspension in saline
[17] = dose: 25.0 mg/kg/injection, schedule: Q04DX002 (ip), vehicle: saline with Tween-80
[18] = dose: 50.0 mg/kg/injection, schedule: Q04DX002 (ip), vehicle: saline with Tween-80
[19] = dose: 100.0 mg/kg/injection, schedule: Q04DX002 (ip), vehicle: saline with Tween-80
[20] = dose: 25.0 mg/kg/injection, schedule: Q01DX009 (ip), vehicle: saline with Tween-80

Measured: T/C

CC1=CC(=O)C2C(CC1)C2(C)C (configuration not stated)
inactive: dose: 100.0 mg/kg/injection, schedule: Q04DX003 (ip), vehicle: saline + Tween-80 + alcohol 102 % of control | dose: 200.0 mg/kg/injection, schedule: Q04DX003 (ip), vehicle: saline + Tween-80 + alcohol 95 % of control | dose: 400.0 mg/kg/injection, schedule: Q04DX003 (ip), vehicle: saline + Tween-80 + alcohol 91 % of control

CNC(=O)OCc1ncn(-c2ccccc2)c1COC(=O)NC
inactive: dose: 12.5 mg/kg/injection, schedule: Q01DX005 (ip), vehicle: distilled water + Tween-80 99 % of control | dose: 25.0 mg/kg/injection, schedule: Q01DX005 (ip), vehicle: distilled water + Tween-80 95 % of control | dose: 50.0 mg/kg/injection, schedule: Q01DX005 (ip), vehicle: distilled water + Tween-80 101 % of control | dose: 100.0 mg/kg/injection, schedule: Q01DX005 (ip), vehicle: distilled water + Tween-80 101 % of control | dose: 200.0 mg/kg/injection, schedule: Q01DX005 (ip), vehicle: distilled water + Tween-80 99 % of control

CCCCCCCCOC(=O)CP(=O)(O)O
inactive: [1] 100 % of control | [2] 96 % of control

CC(C)[CH2][Sn]1([CH2]C(C)C)[O]CCNCC[O]1
inactive: dose: 0.78 mg/kg/injection, schedule: Q01DX009 (ip), vehicle: saline 105 % of control | dose: 1.56 mg/kg/injection, schedule: Q01DX009 (ip), vehicle: saline 109 % of control | dose: 3.12 mg/kg/injection, schedule: Q01DX009 (ip), vehicle: saline 88 % of control

CC(C)(C)c1ccc(-c2cc3nc(-c4ccccc4)cc(=O)n3[nH]2)cc1
inactive: [3] 100 % of control | [4] 98 % of control | [5] 98 % of control

CC(=O)Cn1ccccc1=O
inactive: dose: 60.0 mg/kg/injection, schedule: Q01DX005 (ip), vehicle: saline 99 % of control | dose: 120.0 mg/kg/injection, schedule: Q01DX005 (ip), vehicle: saline 94 % of control | dose: 240.0 mg/kg/injection, schedule: Q01DX005 (ip), vehicle: saline 99 % of control

O=C(O)C[n+]1ccccc1
inactive: dose: 6.25 mg/kg/injection, schedule: Q01DX009 (ip), vehicle: saline 103 % of control | dose: 12.5 mg/kg/injection, schedule: Q01DX009 (ip), vehicle: saline 101 % of control and 94 % of control | [6] 105 % of control | [7] 101 % of control | [8] 97 % of control

COC(=O)C1(C)CCCC2(C)c3cc(OC)ccc3C(=O)C(Br)C12 (configuration not stated)
inactive: [1] 103 % of control | [2] 100 % of control | [9] 112 % of control

COC(=O)c1[nH]c(=O)c(C#N)c(C(=O)OC)c1C(=O)c1ccc(Cl)c(Cl)c1
inactive: dose: 60.0 mg/kg/injection, schedule: Q01DX005 (ip), vehicle: Klucel (hydroxypropylcellulose) (HPC) 100 % of control | dose: 120.0 mg/kg/injection, schedule: Q01DX005 (ip), vehicle: Klucel (hydroxypropylcellulose) (HPC) 107 % of control | [10] 100 % of control

O=C(c1ccccc1)c1nn(-c2ccccc2)c(=O)cc1-c1ccccc1
inactive: [11] 99 % of control | [12] 100 % of control | [13] 100 % of control

O=C1CCSC(=S)N1c1cc(Cl)c(Cl)cc1Cl
inactive: [14] 106 % of control | [15] 108 % of control | [16] 109 % of control

CNc1ccc(O)c2c1C(=O)c1ccccc1C2=O
inactive: [17] 93 % of control | [18] 92 % of control | [19] 101 % of control | dose: 200.0 mg/kg/injection, schedule: Q04DX002 (ip), vehicle: saline with Tween-80 109 % of control

Cn1c(=O)n2n(c1=O)C1C3C4C3C3C5(COCC135)C42 (configuration not stated)
inactive: dose: 50.0 mg/kg/injection, schedule: Q01DX009 (ip), vehicle: Klucel (hydroxypropylcellulose) (HPC) 97 % of control | dose: 100.0 mg/kg/injection, schedule: Q01DX009 (ip), vehicle: Klucel (hydroxypropylcellulose) (HPC) 92 % of control | dose: 200.0 mg/kg/injection, schedule: Q01DX009 (ip), vehicle: Klucel (hydroxypropylcellulose) (HPC) 97 % of control

CCOC(=O)CCC(CNC(=O)c1ccccc1)NC(=O)c1ccccc1 (configuration not stated)
inactive: [3] 98 % of control | [4] 90 % of control | [5] 88 % of control

O=[N+]([O-])c1cc(NC(=S)SCc2ccc(Cl)cc2)ccc1Cl
inactive: [20] 106 % of control | [6] 105 % of control | [1] 100 % of control | [7] 100 % of control | [14] 109 % of control | [2] 106 % of control | [8] 107 % of control | [15] 108 % of control | [9] 106 % of control | dose: 200.0 mg/kg/injection, schedule: Q01DX009 (ip), vehicle: saline 110 % of control | [16] 121 % of control

O=S(=O)(Cl)c1ccccc1 (tested in a mixture with another compound)
inactive: [3] 104 % of control | [4] 99 % of control | [5] 99 % of control

CC1C(=O)C(C)C(c2ccccc2)OC1c1ccccc1 (configuration not stated)
inactive: dose: 50.0 mg/kg/injection, schedule: Q04DX003 (ip), vehicle: saline 97 % of control | dose: 100.0 mg/kg/injection, schedule: Q04DX003 (ip), vehicle: saline 100 % of control | dose: 200.0 mg/kg/injection, schedule: Q04DX003 (ip), vehicle: saline 107 % of control

CCOC(=O)c1ccc(NC(=O)N(C2CCCCC2)C2CCCCC2)cc1
inactive: dose: 3.75 mg/kg/injection, schedule: Q01DX005 (ip), vehicle: Klucel (hydroxypropylcellulose) (HPC) 93 % of control | dose: 7.5 mg/kg/injection, schedule: Q01DX005 (ip), vehicle: Klucel (hydroxypropylcellulose) (HPC) 94 % of control | dose: 15.0 mg/kg/injection, schedule: Q01DX005 (ip), vehicle: Klucel (hydroxypropylcellulose) (HPC) 89 % of control | [10] 87 % of control

COc1ccc(-n2c(=O)c(N=Nc3ccccc3OC)c(O)n(-c3ccccc3Cl)c2=S)cc1
inactive: dose: 50.0 mg/kg/injection, schedule: Q01DX001 (ip), vehicle: Klucel (hydroxypropylcellulose) (HPC) 100 % of control | dose: 100.0 mg/kg/injection, schedule: Q01DX001 (ip), vehicle: Klucel (hydroxypropylcellulose) (HPC) 99 % of control | dose: 200.0 mg/kg/injection, schedule: Q01DX001 (ip), vehicle: Klucel (hydroxypropylcellulose) (HPC) 93 % of control

CCOC(=O)CN1C=CC(=C/C(=N/S(=O)(=O)c2ccc(C)cc2)SC)C=C1
inactive: [17] 100 % of control | [18] 106 % of control | [19] 104 % of control

CC(=O)OC1CCC2(C)C(=CCC3C4CC(C5(O)C(=O)Nc6ccccc65)C(=O)C4(C)CCC32)C1 (configuration not stated)
inactive: [20] 102 % of control | [1] 93 % of control | [2] 94 % of control

O=C(c1ccc(-c2ccccc2)cc1)C1C(c2ccccc2)N1C1CCCCC1 (configuration not stated)
inactive: dose: 25.0 mg/kg/injection, schedule: Q01DX009 (ip), vehicle: other 88 % of control | dose: 100.0 mg/kg/injection, schedule: Q01DX009 (ip), vehicle: other 91 % of control

C=CC(C1=CC(=O)C(OC)=CC1=O)c1ccccc1 (configuration not stated)
inactive: dose: 2.5 mg/kg/injection, schedule: Q01DX009 (ip), vehicle: saline with Tween-80 101 % of control | dose: 5.0 mg/kg/injection, schedule: Q01DX009 (ip), vehicle: saline with Tween-80 103 % of control | dose: 10.0 mg/kg/injection, schedule: Q01DX009 (ip), vehicle: saline with Tween-80 102 % of control

CC(=O)N(C)c1ccc(Nc2ccc(Nc3ccc(N(C)C(C)=O)cc3)c3c2C(=O)c2ccccc2C3=O)cc1
inactive: [11] 100 % of control | [12] 100 % of control | [13] 99 % of control

CC(=O)NS(=O)(=O)c1ccc(N=NC2C(=O)N(C(=O)c3cccnc3)N=C2C)cc1 (configuration not stated)
inactive: dose: 100.0 mg/kg/injection, schedule: Q04DX003 (ip), vehicle: saline with Tween-80 101 % of control | dose: 200.0 mg/kg/injection, schedule: Q04DX003 (ip), vehicle: saline with Tween-80 104 % of control | dose: 400.0 mg/kg/injection, schedule: Q04DX003 (ip), vehicle: saline with Tween-80 109 % of control
